Experimental findings from publication PMC12081684, “A three-dimensional high throughput assay identifies novel antibacterial molecules with activity against intracellular Shigella” (npj Antimicrobials and Resistance, 2025) are described below.

Broadly, the IC50 is the concentration needed to halve the response being measured.

Assay [1] relates to intracellular S. flexneri SF_nanoluc in Caco-2 cells on Cytodex 3 beads. Description: microbe, parasite or virus in culture. The protocol: S. flexneri SF_nanoluc was grown overnight on a 50mgL^-1 kanamycin LB plate at 37 °C. Bacteria were scraped from the plate surface and sub-cultured in warm supplemented EMEM medium for 2 h (at 37 °C and 200 rpm) and diluted to get OD around 0.3 at 625 nm. Induction was performed in 500 ml or 1000 ml siliconized spinner flasks under closed culture conditions. 200 mg autoclaved Cytodex 3 beads (GE Healthcare), rehydrated with cation-free PBS (Sigma), were washed with supplemented EMEM medium and inoculated with 1.7 million Caco-2 cells/ml in half of the desired culture volume of the medium. The spinner vessel was kept static for 4 h in a humidified atmosphere of 5% CO2 at 37 °C, allowing Caco-2 cells to bind to beads. The remaining medium was added into the vessel and stirred at 32.5 rpm. The medium was changed every 72 h, and the induction was used on day 17 to ensure Caco-2 cells were fully differentiated.
Cell concentration induction was measured by NucleoCounter® NC-100™ (ChemoMetec Version 2.4). Cellular invasion was initiated by adding the bacterial stock into cell induction with optimal MOI, and the vessel was stationary for an hour before stirring at 22.5 rpm for 5 h in a humid atmosphere of 5% CO2 at 37 °C. After incubation, culture media was discarded by centrifugation; and a gentamicin protection assay was performed, in which cell beads were washed twice with a warm medium and EMEM containing gentamicin (100ug ml^-1) was added to the chamber of the system. The cell culture was incubated for 1 h with stirring and then washed three times with a warm medium before 25 μl of the invasive mixture was dispensed into each well. Plates were incubated for two days in a humid atmosphere of 5% CO2 at 37 °C before proceeding to develop the luminescent signal by adding 10 μl mixture of nanoluciferase substrate (Nano-Glo® Luciferase Assay System, N1130, Promega) into each well. After standing at room temperature for 30 min, luminescent signals were quantified by the Envision Reader (PerkinElmer) in focus luminescent mode. For the bacterial tracking, we used the green fluorescent protein in S. flexneri ATCC 12022GFP to monitor the invasion.
The HTS assay was performed in 384-well black clear-bottom plates (Greiner). Screening compounds were prepared with an appropriate DMSO concentration (0.5% in cell-based assay). Every assay plate contained 16 wells of DMSO as negative controls and 16 wells of moxifloxacin at a final concentration of 20 μM as positive controls. These controls were used to monitor assay quality through determination of Z’ factor as well as normalizing the data on a per-plate basis.
To assess the quality of the dose-response assay, 11 commercially available antimicrobials were used to evaluate the reliability of the HTS assay. The percentage of coefficient of variation (CV%) was calculated by accessing the IC50 (μM) deviation of selected positive controls. Intra-assay reproducibility was determined by comparing the IC50 that were generated in the same run of the two replicates. Inter-assay reproducibility was assessed by comparing the IC50 generated by two replicates of each day over two days. Intra-assay %CV should be <10%, while inter-assay %CV should be <15%. To validate the HTS assay configuration, a set of 10 thousand compounds was assayed in 384-well plates at a final concentration of 10 μM. Assay were run in duplicate and confirmed if needed, a validation data was assessed to analyse the pros and cons of the whole procedure.
Following screening, all non-novel structures were removed, and the remaining compounds were subjected to a dose response (DR) assay, which was set as 3-fold serial dilution started at 100uM each compound.
The raw data of the plate reader was imported and analysed in ActivityBase and Spotfire version 10.3.1.18 (TIBCO).

Assay [2] relates to intracellular S. flexneri in Caco-2 cell monolayers. In words: Monolayer (plate-based) Caco-2 intracellular Shigella assay. Format: cell-based, Shigella flexneri. The text has this:
The IC50 comparison between plate-based (monolayers) and bead-based assay was applied for control (Moxifloxacin) to validate and compare between two methods. The average IC50s from monolayer assays were lower than bead-based assays, but there was no significant difference (p value > 0.05, using Mann-Whitney test) between two methods (Supplementary Table 6).

Values joined by “and” are separate entries in the source; they are usually repeats but may differ in a detail not shown here. Equal values may be shown once. Read-outs that look alike come from different tables or passages of the source.

Turning to `COc1c(N2C[C@@H]3CCCN[C@@H]3C2)c(F)cc2c(=O)c(C(=O)O)cn(C3CC3)c12` [Moxifloxacin, reference compound], the IC50 in assay [1] (Shigella flexneri, Caco-2, read-out: IC50 (µM) Beads, Average, Average of three, Supplementary table 6) is 0.0305 µM; in assay [1] (Shigella flexneri, Caco-2, read-out: IC50 (µM) Beads, single runs, Supplementary table 6) it was 0.0361 µM; in assay [1] (Shigella flexneri, Caco-2, read-out: IC50 T1, 1st Batch, replicate T1), 0.0252 µM; in assay [1] (Shigella flexneri, Caco-2, read-out: IC50 T2, 1st Batch, replicate T2), 0.0221 µM; in assay [1] (Shigella flexneri, Caco-2, read-out: IC50 T3, 2nd Batch, replicate T3), 0.0235 µM; in assay [1] (Shigella flexneri, Caco-2, read-out: IC50 T4, 2nd Batch, replicate T4) it was 0.0235 µM. The IC50 in assay [1] (read-out: IC50 (µM) Beads, single runs, Supplementary table 6) is 0.0327 µM and 0.0226 µM; in assay [2] (Shigella flexneri, Caco-2, Average of three, read-out: IC50 (µM) Monolayers, Average) it was 0.0232 µM; in assay [2] (Shigella flexneri, Caco-2, single runs, read-out: IC50 (µM) Monolayers), 0.0236 µM; in assay [2] (single runs, read-out: IC50 (µM) Monolayers) it was 0.0234 µM and 0.0228 µM.
